Literature values in patent publication US20070250270A1, “Cellular predictive models for toxicities” (Cytokinetics, Inc., priority 2006, published 2007).
Starred links: 1 amine or outer side, 2 acyl side, 3 side chain; linkers in the order of their positions; H or OH if unused. Positions of bridges follow the written chain, without caps; N, C: chain ends. Non-standard residues stand in square brackets, D forms with d. Residues, ends and D or L forms follow the SMILES beside them. Trp(2-yl) = O=C([C@H](Cc1c([*:3])[nH]c2ccccc12)N[*:1])[*:2]; Leu(4R-OH,5-OH) = C[C@](O)(CO)C[C@H](N)C(=O)O; cisHyp = O=C(O)[C@@H]1C[C@H](O)CN1

How the values were obtained:
bile flow = details: rats

| SMILES | effect on bile flow, resulting in cholestatic injury (bile flow) | effect on filamentous F actin around canaliculi and tight junctions (filamentous F actin) |
| --- | --- | --- |
| C=C1[C@@H](C)[C@H]2[C@H](Cc3ccccc3)NC(=O)[C@]23OC(=O)/C=C/[C@H](O)CCC[C@@H](C)C/C=C/[C@H]3[C@@H]1O [cytochalasin B] | prompt arrest of bile flow |  |
| C[C@@H]1NC(=O)[C@H](C[C@@](C)(O)CO)NC(=O)[C@@H]2Cc3c([nH]c4ccccc34)SC[C@H](NC(=O)[C@@H]([C@H](C)O)NC1=O)C(=O)N1C[C@@H](O)C[C@H]1C(=O)N[C@@H](C)C(=O)N2 [phalloidin] (cyclo(A[dT]C[cisHyp]A[Trp(2-yl)][Leu(4R-OH,5-OH)]); thioether 3-6) |  | increase in filamentous F actin around canaliculi and tight junctions |
